Laboratory results reported in PubChem BioAssay (NCI).
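All cell lines were grown in 96-well plates and treated with compound for 48 hours. Here, GI50 denotes the concentration required for 50% inhibition of growth. TGI denotes the concentration required for complete inhibition of growth.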

Assays:
Assay in all cases: NCI anticancer screen, dose series, 48 h
786-0 renal = test system: 786-0 renal
A498 renal = test system: A498 renal
A549 NSCLC = test system: A549 NSCLC
ACHN renal = test system: ACHN renal
BT-549 breast = test system: BT-549 breast
CAKI-1 renal = test system: CAKI-1 renal
CCRF-CEM leukemia = test system: CCRF-CEM leukemia
COLO 205 colon = test system: COLO 205 colon
DU-145 prostate = test system: DU-145 prostate
EKVX NSCLC = test system: EKVX NSCLC
HCC-2998 colon = test system: HCC-2998 colon
HCT-116 colon = test system: HCT-116 colon
HCT-15 colon = test system: HCT-15 colon
HL-60(TB) leukemia = test system: HL-60(TB) leukemia
HOP-62 NSCLC = test system: HOP-62 NSCLC
HOP-92 NSCLC = test system: HOP-92 NSCLC
HS 578T breast = test system: HS 578T breast
HT29 colon = test system: HT29 colon
IGROV1 ovarian = test system: IGROV1 ovarian
K-562 leukemia = test system: K-562 leukemia
LOX IMVI melanoma = test system: LOX IMVI melanoma
M14 melanoma = test system: M14 melanoma
MALME-3M melanoma = test system: MALME-3M melanoma
MCF7 breast = test system: MCF7 breast
MDA-MB-231 breast = test system: MDA-MB-231 breast
MDA-MB-435 = test system: MDA-MB-435
MOLT-4 leukemia = test system: MOLT-4 leukemia
NCI-H226 lung = test system: NCI-H226 lung
NCI-H23 lung = test system: NCI-H23 lung
NCI-H460 lung = test system: NCI-H460 lung
NCI-H522 lung = test system: NCI-H522 lung
NCI/ADR-RES ovarian = test system: NCI/ADR-RES ovarian
OVCAR-3 ovarian = test system: OVCAR-3 ovarian
OVCAR-4 ovarian = test system: OVCAR-4 ovarian
OVCAR-5 ovarian = test system: OVCAR-5 ovarian
OVCAR-8 ovarian = test system: OVCAR-8 ovarian
PC-3 prostate = test system: PC-3 prostate
RPMI-8226 leukemia = test system: RPMI-8226 leukemia
RXF 393 renal = test system: RXF 393 renal
SF-268 CNS = test system: SF-268 CNS
SF-295 CNS = test system: SF-295 CNS
SF-539 CNS = test system: SF-539 CNS
SK-MEL-2 melanoma = test system: SK-MEL-2 melanoma
SK-MEL-28 melanoma = test system: SK-MEL-28 melanoma
SK-MEL-5 melanoma = test system: SK-MEL-5 melanoma
SK-OV-3 ovarian = test system: SK-OV-3 ovarian
SN12C renal = test system: SN12C renal
SNB-19 CNS = test system: SNB-19 CNS
SNB-75 CNS = test system: SNB-75 CNS
SR leukemia = test system: SR leukemia
SW-620 colon = test system: SW-620 colon
TK-10 renal = test system: TK-10 renal
U251 CNS = test system: U251 CNS
UACC-257 melanoma = test system: UACC-257 melanoma
UACC-62 melanoma = test system: UACC-62 melanoma
UO-31 renal = test system: UO-31 renal

CC1OC(O[C@@H]2[C@H](O)C(CO)OC(O[C@H]3COC(O[C@H]4CC[C@]5(C)[C@H]6CC[C@]78OC[C@@]9(CCC(C)(C)C[C@H]97)[C@H](O)C[C@@]8(C)[C@]6(C)CC[C@H]5C4(C)C)[C@@H](OC4OC(CO)[C@@H](O)[C@@H](O)[C@@H]4O)[C@@H]3O)[C@H]2OC2OC[C@@H](O)[C@@H](O)[C@@H]2O)[C@@H](O)[C@@H](O)[C@H]1O (some centres not stated)
GI50 (786-0 renal): 2800 nM
TGI (786-0 renal): 5160 nM
GI50 (A498 renal): 2440 nM
TGI (A498 renal): 4590 nM
GI50 (A549 NSCLC): 3070 nM
TGI (A549 NSCLC): 5910 nM
GI50 (ACHN renal): 621 nM
TGI (ACHN renal): 2570 nM
GI50 (BT-549 breast): 2360 nM
TGI (BT-549 breast): 4550 nM
GI50 (CAKI-1 renal): 2390 nM
TGI (CAKI-1 renal): 4510 nM
GI50 (CCRF-CEM leukemia): 698 nM
TGI (CCRF-CEM leukemia): 3260 nM
GI50 (COLO 205 colon): 2290 nM
TGI (COLO 205 colon): 4500 nM
GI50 (DU-145 prostate): 2470 nM
TGI (DU-145 prostate): 4920 nM
GI50 (EKVX NSCLC): 3040 nM
TGI (EKVX NSCLC): 5480 nM
GI50 (HCC-2998 colon): 1560 nM
TGI (HCC-2998 colon): 3390 nM
GI50 (HCT-116 colon): 1780 nM
TGI (HCT-116 colon): 3680 nM
GI50 (HCT-15 colon): 2520 nM
TGI (HCT-15 colon): 4780 nM
GI50 (HL-60(TB) leukemia): 345 nM
TGI (HL-60(TB) leukemia): 700 nM
GI50 (HOP-62 NSCLC): 2570 nM
TGI (HOP-62 NSCLC): 4940 nM
GI50 (HOP-92 NSCLC): 1850 nM
TGI (HOP-92 NSCLC): 3810 nM
GI50 (HS 578T breast): 2450 nM
TGI (HS 578T breast): 5500 nM
GI50 (HT29 colon): 2800 nM
TGI (HT29 colon): 5230 nM
GI50 (IGROV1 ovarian): 2310 nM
TGI (IGROV1 ovarian): 4650 nM
GI50 (K-562 leukemia): 2950 nM
TGI (K-562 leukemia): 5980 nM
GI50 (LOX IMVI melanoma): 2060 nM
TGI (LOX IMVI melanoma): 4110 nM
GI50 (M14 melanoma): 1440 nM
TGI (M14 melanoma): 3350 nM
GI50 (MALME-3M melanoma): 2580 nM
TGI (MALME-3M melanoma): 4960 nM
GI50 (MCF7 breast): 2230 nM
TGI (MCF7 breast): 4830 nM
GI50 (MDA-MB-231 breast): 2070 nM
TGI (MDA-MB-231 breast): 4180 nM
GI50 (MDA-MB-435): 2160 nM
TGI (MDA-MB-435): 4220 nM
GI50 (MOLT-4 leukemia): 535 nM
TGI (MOLT-4 leukemia): 3270 nM
GI50 (NCI-H226 lung): 2730 nM
TGI (NCI-H226 lung): 5730 nM
GI50 (NCI-H23 lung): 1910 nM
TGI (NCI-H23 lung): 4140 nM
GI50 (NCI-H460 lung): 2620 nM
TGI (NCI-H460 lung): 5350 nM
GI50 (NCI-H522 lung): 2450 nM
TGI (NCI-H522 lung): 4690 nM
GI50 (NCI/ADR-RES ovarian): 2640 nM
TGI (NCI/ADR-RES ovarian): 5400 nM
GI50 (OVCAR-3 ovarian): 2750 nM
TGI (OVCAR-3 ovarian): 5040 nM
GI50 (OVCAR-4 ovarian): 2250 nM
TGI (OVCAR-4 ovarian): 4820 nM
GI50 (OVCAR-5 ovarian): 2520 nM
TGI (OVCAR-5 ovarian): 4920 nM
GI50 (OVCAR-8 ovarian): 3500 nM
TGI (OVCAR-8 ovarian): 6830 nM
GI50 (PC-3 prostate): 2560 nM
TGI (PC-3 prostate): 4770 nM
GI50 (RPMI-8226 leukemia): 1930 nM
TGI (RPMI-8226 leukemia): 4680 nM
GI50 (RXF 393 renal): 566 nM
TGI (RXF 393 renal): 2850 nM
GI50 (SF-268 CNS): 2550 nM
TGI (SF-268 CNS): 5130 nM
GI50 (SF-295 CNS): 2580 nM
TGI (SF-295 CNS): 4760 nM
GI50 (SF-539 CNS): 1550 nM
TGI (SF-539 CNS): 3510 nM
GI50 (SK-MEL-2 melanoma): 2320 nM
TGI (SK-MEL-2 melanoma): 4570 nM
GI50 (SK-MEL-28 melanoma): 809 nM
TGI (SK-MEL-28 melanoma): 2770 nM
GI50 (SK-MEL-5 melanoma): 2270 nM
TGI (SK-MEL-5 melanoma): 4370 nM
GI50 (SK-OV-3 ovarian): 2410 nM
TGI (SK-OV-3 ovarian): 4530 nM
GI50 (SN12C renal): 1680 nM
TGI (SN12C renal): 3560 nM
GI50 (SNB-19 CNS): 2140 nM
TGI (SNB-19 CNS): 4430 nM
GI50 (SNB-75 CNS): 256 nM
TGI (SNB-75 CNS): 1410 nM
GI50 (SR leukemia): 16.9 nM
TGI (SR leukemia): 1520 nM
GI50 (SW-620 colon): 2550 nM
TGI (SW-620 colon): 5120 nM
GI50 (TK-10 renal): 3590 nM
TGI (TK-10 renal): 5970 nM
GI50 (U251 CNS): 2690 nM
TGI (U251 CNS): 5130 nM
GI50 (UACC-257 melanoma): 2850 nM
TGI (UACC-257 melanoma): 5170 nM
GI50 (UACC-62 melanoma): 2270 nM
TGI (UACC-62 melanoma): 4340 nM
GI50 (UO-31 renal): 323 nM
TGI (UO-31 renal): 1140 nM
